# Measurements reported in publication PMC7914897, “Cytotoxic Potential of a-Azepano- and 3-Amino-3,4-SeCo-Triterpenoids” (International Journal of Molecular Sciences, 2021).
# Tests used:
# MALME-3M (Melanoma) = test: NCI-60 screen (SRB, 48 h); settings: Homo sapiens
# HCT-116 (Colon cancer) = test: NCI-60 screen (SRB, 48 h); settings: Homo sapiens
# Prostate cancer subpanel = test: NCI-60 screen, subpanel; settings: Homo sapiens
# Leukemia subpanel = test: cells; settings: Homo sapiens
# UACC-62 (Melanoma) = test: NCI-60 screen (SRB, 48 h); settings: Homo sapiens
# [1] = tested on: A549/ATCC (NSC lung cancer); test: NCI-60 screen (SRB, 48 h); settings: Homo sapiens
# MCF7 (Breast cancer) = test: NCI-60 screen (SRB, 48 h); settings: Homo sapiens
# LOX IMVI (Melanoma) = test: NCI-60 screen (SRB, 48 h); type: cell-based; settings: Homo sapiens
# TK-10 (Renal cancer) = test: NCI-60 screen (SRB, 48 h); settings: Homo sapiens
# PC-3 (Prostate cancer) = test: NCI-60 screen (SRB, 48 h); settings: Homo sapiens
# U251 (CNS cancer) = test: NCI-60 screen (SRB, 48 h); settings: Homo sapiens
# RXF 393 (Renal cancer) = test: NCI-60 screen (SRB, 48 h); settings: Homo sapiens
# [2] = tested on: MDA-MB-31/ATCC (Breast cancer); test: NCI-60 screen (SRB, 48 h); settings: Homo sapiens
# KM12 (Colon cancer) = test: NCI-60 screen (SRB, 48 h); settings: Homo sapiens
# IGROV1 (Ovarian cancer) = test: NCI-60 screen (SRB, 48 h); settings: Homo sapiens
# SN12C (Renal cancer) = test: NCI-60 screen (SRB, 48 h); settings: Homo sapiens
# SNB-19 (CNS cancer) = test: NCI-60 screen (SRB, 48 h); settings: Homo sapiens
# K-562 (Leukemia) = test: NCI-60 screen (SRB, 48 h); settings: Homo sapiens
# SK-MEL-2 (Melanoma) = test: NCI-60 screen (SRB, 48 h); settings: Homo sapiens
# [3] = tested on: NCI/ADR-RES (Ovarian cancer); test: NCI-60 screen (SRB, 48 h); settings: Homo sapiens
# [4] = tested on: NIH 3T3 (non-malignant mouse fibroblasts); test: SRB cytotoxicity assay, 72 h; type: cell-based; settings: Mus musculus, NIH3T3; NIH 3T3, 72 h, cut-off 30 µM; read-out: EC50
# Protocol: The cytotoxicity of compounds 1–20 was evaluated by means of a colorimetric sulforhodamine B (SRB) assay. For all compounds, the EC50 values were determined for the human tumor cell lines A375 (malignant melanoma), HT29 (colorectal carcinoma), MCF-7 (breast carcinoma), A2780 (ovarian carcinoma), FaDu (hypopharyngeal carcinoma), and NIH 3T3 (non-malignant mouse fibroblasts).
# In short, exponentially growing cells were seeded into 96-well plates on day 0 at the appropriate cell densities to prevent confluence of the cells during the period of experiment. After 24 h, the cells were treated with serial dilutions of the compounds (0–30 µM) for 72 h. The final concentration of DMSO never exceeded 0.5%, which was non-toxic to the cells. After a 72 h treatment, the supernatant medium from the 96-well plates was discarded, and the cells were fixed with 10% TCA. For a thorough fixation, the plates were allowed to rest at 4 °C. After fixation, the cells were washed in a strip washer. The washing was done four times with water using alternate dispensing and aspiration procedures. The plates were then dyed with 100 µL of 0.4% SRB for about 20 min. After dying, the plates were washed with 1% acetic acid to remove the excess of the dye and allowed to air-dry overnight. Tris base solution (200 µL, 10 mM) was added to each well and absorbance was measured at λ = 570 nm (using a 96 well plate reader, Tecan Spectra, Crailsheim, Germany). The percentages of surviving cells relative to untreated controls were determined.
# HCT-15 (Colon cancer) = test: NCI-60 screen (SRB, 48 h); settings: Homo sapiens
# HS 578T (Breast cancer) = test: NCI-60 screen (SRB, 48 h); settings: Homo sapiens
smiles,measurement,setting,value
"C=C(C)C1CCC2(CO)CCC3(C)C(CCC4C5(C)CCCNC(C)(C)C5CCC43C)C12 (stereo not drawn) [Compound 1, Azepanobetulin]",GI50,MALME-3M (Melanoma),1.5 µM
same,IC (TGI),"MALME-3M (Melanoma); 48 h, read-out: TGI",3.05 µM
same,CC50,MALME-3M (Melanoma); read-out: LC50,6.18 µM
same,GI50,HCT-116 (Colon cancer); HCT-116,1.29 µM
same,activity at 10 µM,"HCT-116 (Colon cancer); HCT-116, 48 h, read-out: Growth % of the Most Sensitive Cell Lines",-79%
same,IC (TGI),"HCT-116 (Colon cancer); HCT-116, 48 h, read-out: TGI",2.63 µM
same,CC50,"HCT-116 (Colon cancer); HCT-116, read-out: LC50",5.38 µM
same,IC (TGI),"Prostate cancer subpanel; 48 h, read-out: TGI MG_MID",2.98 µM
same,GI50,Prostate cancer subpanel; read-out: GI50 MG_MID,2.98 µM
same,CC50,Prostate cancer subpanel; read-out: LC50 MG_MID,5.66 µM
same,IC (TGI),"Leukemia subpanel; 48 h, read-out: TGI MG_MID",4.3 µM
same,GI50,Leukemia subpanel; read-out: GI50 MG_MID,1.69 µM
same,CC50,Leukemia subpanel; read-out: LC50 MG_MID,> 100 µM
same,GI50,UACC-62 (Melanoma); UACC-62,1.82 µM
same,IC (TGI),"UACC-62 (Melanoma); UACC-62, 48 h, read-out: TGI",3.25 µM
same,CC50,"UACC-62 (Melanoma); UACC-62, read-out: LC50",5.8 µM
same,GI50,[1]; A549,1.73 µM
same,IC (TGI),"[1]; A549, 48 h, read-out: TGI",3.24 µM
same,CC50,"[1]; A549, read-out: LC50",6.08 µM
same,GI50,MCF7 (Breast cancer); MCF7,1.29 µM
same,IC (TGI),"MCF7 (Breast cancer); MCF7, 48 h, read-out: TGI",2.77 µM
same,CC50,"MCF7 (Breast cancer); MCF7, read-out: LC50",5.94 µM
same,IC (TGI),LOX IMVI (Melanoma); 48 h,3.03 µM
same,GI50,LOX IMVI (Melanoma); read-out: GI50,1.51 µM
same,GI50,TK-10 (Renal cancer); TK-10,1.76 µM
same,IC (TGI),"TK-10 (Renal cancer); TK-10, 48 h, read-out: TGI",3.5 µM
same,CC50,"TK-10 (Renal cancer); TK-10, read-out: LC50",6.96 µM
same,GI50,PC-3 (Prostate cancer); PC-3,2.94 µM
same,IC (TGI),"PC-3 (Prostate cancer); PC-3, 48 h, read-out: TGI",2.94 µM
same,CC50,"PC-3 (Prostate cancer); PC-3, read-out: LC50",5.74 µM
same,GI50,U251 (CNS cancer); U-251,1.65 µM
same,IC (TGI),"U251 (CNS cancer); U-251, 48 h, read-out: TGI",3.09 µM
same,CC50,"U251 (CNS cancer); U-251, read-out: LC50",5.76 µM
same,GI50,RXF 393 (Renal cancer); RXF 393,1.68 µM
same,IC (TGI),"RXF 393 (Renal cancer); RXF 393, 48 h, read-out: TGI",3.18 µM
same,CC50,"RXF 393 (Renal cancer); RXF 393, read-out: LC50",6.04 µM
same,GI50,[2],1.77 µM
same,IC (TGI),"[2]; 48 h, read-out: TGI",3.21 µM
same,CC50,[2]; read-out: LC50,5.8 µM
same,GI50,KM12 (Colon cancer); KM12,1.73 µM
same,IC (TGI),"KM12 (Colon cancer); KM12, 48 h, read-out: TGI",3.24 µM
same,CC50,"KM12 (Colon cancer); KM12, read-out: LC50",6.09 µM
same,GI50,IGROV1 (Ovarian cancer); IGROV-1,1.65 µM
same,IC (TGI),"IGROV1 (Ovarian cancer); IGROV-1, 48 h, read-out: TGI",3.26 µM
same,CC50,"IGROV1 (Ovarian cancer); IGROV-1, read-out: LC50",6.44 µM
same,GI50,SN12C (Renal cancer),1.62 µM
same,IC (TGI),"SN12C (Renal cancer); 48 h, read-out: TGI",3.03 µM
same,CC50,SN12C (Renal cancer); read-out: LC50,5.69 µM
same,GI50,SNB-19 (CNS cancer); SNB-19,1.75 µM
same,IC (TGI),"SNB-19 (CNS cancer); SNB-19, 48 h, read-out: TGI",3.2 µM
same,CC50,"SNB-19 (CNS cancer); SNB-19, read-out: LC50",5.86 µM
same,GI50,K-562 (Leukemia); K562,1.08 µM
same,IC (TGI),"K-562 (Leukemia); K562, 48 h, read-out: TGI",3.79 µM
same,CC50,"K-562 (Leukemia); K562, read-out: LC50",> 100 µM
same,GI50,SK-MEL-2 (Melanoma); SK-MEL-2,1.84 µM
same,IC (TGI),"SK-MEL-2 (Melanoma); SK-MEL-2, 48 h, read-out: TGI",3.75 µM
same,GI50,[3],1.63 µM
same,IC (TGI),"[3]; 48 h, read-out: TGI",3.18 µM
same,CC50,[3]; read-out: LC50,6.18 µM
same,EC50,[4],1.6 ± 0.4 µM
same,GI50,HCT-15 (Colon cancer); HCT-15,1.39 µM
same,IC (TGI),"HCT-15 (Colon cancer); HCT-15, 48 h, read-out: TGI",2.77 µM
same,CC50,"HCT-15 (Colon cancer); HCT-15, read-out: LC50",5.52 µM
same,GI50,HS 578T (Breast cancer),1.99 µM
same,IC (TGI),"HS 578T (Breast cancer); 48 h, read-out: TGI",4.79 µM
same,CC50,HS 578T (Breast cancer); read-out: LC50,31 µM
